Experimental data: patent publication US20210046097A1, “NEUTRAL ENDOPEPTIDASE (NEP) AND HUMAN SOLUBLE ENDOPEPTIDASE (hSEP) INHIBITORS FOR PROPHYLAXIS AND TREATMENT OF EYE DISEASES” (FORTY-FOUR PHARMACEUTICALS SP. Z.O.O, priority 2018, published 2021)

Experiments:
[1] = tested on: doxorubicin-induced apoptosis in the liver; assay: Doxorubicin-induced apoptosis in rat liver (TUNEL staining, stereological disector); assay type: in vivo
Description: (§1) Apoptosis is a significant component of cell death in optic and/or eye diseases including (i) all forms of primary and secondary glaucoma, preferably such as e.g. primary open-angle glaucoma, normal-tension glaucoma, primary angle-closure glaucoma, pseudoexfoliation syndrome and glaucoma, pigment dispersion syndrome and glaucoma, neovascular glaucoma, inflammatory glaucoma, lens-related glaucoma, traumatic glaucoma, primary congenital glaucoma, iatrogenic induced glaucoma, and malignant glaucoma (R. Agarwal, S. K. Gupta, P. Agarwal, R. Saxena & S. S. Agrawal (2009) Indian J. Ophthalmol. 57, 257-266); (ii) aquired macular disorders, preferably such as e.g. age-related macular degeneration, idiopathic choroidal neovascularisation, central serous chorioretinopathy, vitreomacular interface disorders, idiopathic macular telangiectasia, cystoid macular oedema, and microcystic macular oedema (J. L. Dunaief, T. Dentchev, G.-S. Ying & A. H. Milam (2002) Arch. Ophthalmol. 120, 1435-1442); (iii) optic neuropathy, preferably such as e.g. anterior or posterior ischemic optic neuropathy (B. J. Slater, Z. Mehrabian, Y. Guo, A. Hunter & S. L. Bernstein (2008) Invest. Ophthalmol. Vis. Sci. 49, 3671-3676); (iv) optic neuritis (K. S. Shindler, E. Ventura, M. Dutt & A. Rostami (2008) Exp.Eye Res. 87, 208-213); (v) uveitis, preferably such as e.g. anterior uveitis, intermediate uveitis, posterior uveitis, and panuveitis (C.-C. Chan, D. M. Matteson, Q. Li, S. M. Whitcup & R. B. Nussenblatt (1997) Arch. Ophthalmol. 115, 1559-1567); (vi) hereditary fundus dystrophies, preferably such as e.g. retinitis pigmentosa, cone dystrophy, cone-rod dystrophy, rod dystrophy, Stargardt's disease, Bietti's crystalline corneoretinal dystrophy, familial benign fleck retina, Best vitelliform macular dystrophy, adult-onset vitelliform macular dystrophy, North Carolina macular dystrophy, familial dominant drusen, and concentric annular macular dystrophy (H. Zhang, X. Li, X. Dai, J. Han, Y. Zhang, Y. Qi, Y. He, Y. Liu, B. Chang & J. J. Pang (2017) J. Ophthalmol. 2017, 1-13 9721362); (vii) retinal vascular diseases, preferably such as e.g. diabetic retinopathy, non-diabetic retinopathy, retinal venous occlusive disease, retinal arterial occlusive disease, ocular ischemic syndrome, hypertensive eye disease, sickle cell retinopathy, thalassemia retinopathy, retinopathy of prematurity, retinal artery macroaneurysm, primary retinal telangiectasia, Eales disease, and radiation retinopathy (G. Donati, A. Kapetanios, M. Dubois-Dauphin & C. J. Pournaras (2008) Acta Ophthalmol. 86, 302-306); (viii) scleritis or episcleritis (C. Heinz, N. Bograd, J. Koch & A. Heiligenhaus (2013) Graefes Arch. Clin. Exp. Ophthalmol. 251, 139-142); (ix) retinal detachments (J. G. Arroyo, L. Yang, D. Bula & D. F. Chen (2005) Am. […]

[2] = tested on: doxorubicin-induced apoptosis in retinal ganglion cells; assay: Doxorubicin-induced apoptosis in rat retinal ganglion cells (intravitreal doxorubicin, TUNEL staining, stereological disector); assay type: in vivo
Description: as §1

[3] = 60 mg/kg/d s.c., result in words
[4] = vs doxorubicin + vehicle, 60 mg/kg/d s.c.

**Q.** For O=C(O)CN1C(=O)[C@@H](NC(=O)C2(C[C@@H](CCc3ccccc3)C(=O)O)CCCC2)CCc2ccccc21 [Example (6), (2R)-2-{[1-({[(3S)-1-(carboxymethyl)-2-oxo-2,3,4,5-tetrahydro-1H-1-benzazepin-3-yl]amino}carbonyl)cyclopentyl]methyl}-4-phenylbutanoic acid], which “Protection against doxorubicin induced apoptosis in the liver (reduction of Nv of TUNEL positive cells vs vehicle)” value [1, 3] is on record?
**A.** significant protection

**Q.** What about the “Nv, number of TUNEL positive cells, liver” value ([1]; Wistar rats, 60 mg/kg/d s.c. osmotic minipump, doxorubicin 5 mg/kg i.p. t.i.d. days 1-3, 5 days after first injection, mean ± SEM) of the same compound?
**A.** 7.93 ± 0.25 TUNEL positive cells×10^2/mm^3

**Q.** And the “Nv as % of doxorubicin + vehicle, liver” value ([1]; Wistar rats, 60 mg/kg/d s.c. osmotic minipump, doxorubicin 5 mg/kg i.p. t.i.d. days 1-3, day 5)?
**A.** 76.54%

**Q.** And the “Decrease of density of apoptotic cells in the rat liver” value [1, 4]?
**A.** 23.46%

**Q.** And the “Protection against doxorubicin induced apoptosis in the retina (reduction of Nv of TUNEL positive cells vs vehicle)” value [2, 3]?
**A.** significant protection

**Q.** What about the “Nv, number of TUNEL positive cells, retinal ganglion cells (RGC)” value ([2]; Wistar rats, 60 mg/kg/d s.c. osmotic minipump, doxorubicin 5 μg into vitreous body day 1, 5 days after, mean ± SEM) of the same compound?
**A.** 33.64 ± 0.96 TUNEL positive cells×10^3/mm^3

**Q.** And the “Nv as % of doxorubicin + vehicle, RGC” value ([2]; Wistar rats, 60 mg/kg/d s.c. osmotic minipump, doxorubicin 5 μg into vitreous body day 1, day 5)?
**A.** 91.79%

**Q.** What about the “Decrease of density of apoptotic cells in the retina” value [2, 4] of the same compound?
**A.** 8.21%
